In patent publication US20250326722A1 (SHANGHAI HANSOH BIOMEDICAL CO., LTD., priority 2022, published 2025):

Experiments:
[1] = target: PCSK9 secreted by HepG2 cells (Homo sapiens (Human), UniProt Q8NBP7); assay: Effect on the concentration of PCSK9 secreted by HepG2 cells (ELISA); assay type: cell-based; conditions: 48 hours incubation, read-out: Inhibitory activity on PCSK9, IC50
Description: • 1. Experimental objective: To detect the inhibitory effect of the compounds on PCSK9. • 2. Experimental instruments and reagents: • 2.1 Instruments:
• CircuLex Human PCSK9 ELISA kit (MBL: CY-8079); • DMEM (Gibco: 31966-021) • FBS (Sigma: S5394) • Compound plate (Thermo: 1353506) • Complete culture medium: DMEM+10% FBS+1×P/S; • Experimental culture medium: DMEM+10% FBS • Cell strain: HepG2 (ATCC: HB-8065)
A self-adhesive seal was applied, the plate was placed on a plate shaker at room temperature, gently shaken, uniformly mixed, and incubated for 1 hour. • 11) The plate was placed on the plate washer, the washing liquid was set to 350 μL per well, and the plate was washed 4 times repeatedly. • 12) 100 μL/well of an HRP-conjugated detection antibody was added, a self-adhesive seal was applied, and the plate was placed on the plate shaker, well mixed uniformly, and incubated for 1 hour. • 13) The plate was placed on the plate washer, the washing liquid was set to 350 μL per well, and the plate was washed 4 times repeatedly. • 14) 100 μL/well of Substrate reagent was added, and the plate was placed in the dark, applied with a self-adhesive seal, placed on the plate shaker, well mixed uniformly, and incubated for 10-20 minutes. • 15) 100 μL/well of Stop solution (1N H2SO4) was added and mixed uniformly. • 16) The optical density (OD) value in each well was measured in sequence at a wavelength of 450 nm by the microplate reader. Detection was carried out within 30 min after the reaction was stopped.
After the OD values were read by the microplate reader, the OD value of the 0-concentration standard in the standard group was subtracted from the OD values of the standards, control group, and samples to obtain the actual OD values for these wells. A standard curve was plotted with Graphpad and the concentration of the sample was calculated. If the dilution was performed during the sample detection, the calculated sample concentration was necessarily multiplied by the corresponding dilution ratio in the final calculation, which was the actual concentration of the sample. Inhibition rate=(actual concentration in control-actual concentration in sample)/actual concentration in control*100. According to the inhibition rates corresponding to the different concentrations, IC50 was derived by Graphpad.

[2] = Pharmacokinetic determination in mice (plasma); assay type: in vivo, C57BL/6J mice; conditions: C57 mice, PO administration, 5 mpk; for AUC(0-inf) / half-life / MRT / Cmax: male, C57BL/6J, mouse, 5 mg/kg; for AUC(0-inf): read-out: Area under the curve AUC0-∞; for half-life: read-out: Half-life t1/2 (converted); for MRT: read-out: Mean residence time MRT; for Cmax: read-out: Plasma concentration Cmax
Experimental: C57BL/6J mice were used as test animals to study the pharmacokinetic behavior of the compounds of the present disclosure in mice (plasma) after oral and intravenous administration.
C57 mice, male, purchased from Shanghai Bk Lab Animal Co., Ltd., with animal production license number (SCXK (Shanghai) 2013-0006 NO.311620400001794).
• Preparation of oral drug: 10% Solutol HS15
10 g of Solutol HS15 solid was weighed, dissolved in 90 mL of pure water, uniformly mixed, stirred, and ultrasonically treated to form a clear solution.
The compound of the present disclosure was weighed and dissolved in this solution, uniformly shaken, and ultrasonically treated for 15 minutes to obtain a colorless clear solution with a concentration of 0.5 mg/mL. • Preparation of intravenous drug: 5% DMSO+10% Solutol HS15+85% PBS […]
3 male C57 mice were fasted overnight and then respectively administered PO at a dose of 5 mg/kg and a volume of 10 mL/kg. […]
Before and after administration of mice, 0.04 mL of blood was collected from the orbit at 0.083 (iv), 0.25, 0.5, 1, 2, 4, 8, and 24 hours, and placed in EDTA-K2 test tubes, which was centrifuged at 6000 rpm at 4° C. for 6 min to separate plasma which was stored at −80° C.; and the […] were fed 4 h after administration.
The final determination results were obtained by using an LCMS/MS method.
The main pharmacokinetic parameters were calculated using WinNonlin 6.1.

Sequence of PCSK9 secreted by HepG2 cells (Q8NBP7 153-692): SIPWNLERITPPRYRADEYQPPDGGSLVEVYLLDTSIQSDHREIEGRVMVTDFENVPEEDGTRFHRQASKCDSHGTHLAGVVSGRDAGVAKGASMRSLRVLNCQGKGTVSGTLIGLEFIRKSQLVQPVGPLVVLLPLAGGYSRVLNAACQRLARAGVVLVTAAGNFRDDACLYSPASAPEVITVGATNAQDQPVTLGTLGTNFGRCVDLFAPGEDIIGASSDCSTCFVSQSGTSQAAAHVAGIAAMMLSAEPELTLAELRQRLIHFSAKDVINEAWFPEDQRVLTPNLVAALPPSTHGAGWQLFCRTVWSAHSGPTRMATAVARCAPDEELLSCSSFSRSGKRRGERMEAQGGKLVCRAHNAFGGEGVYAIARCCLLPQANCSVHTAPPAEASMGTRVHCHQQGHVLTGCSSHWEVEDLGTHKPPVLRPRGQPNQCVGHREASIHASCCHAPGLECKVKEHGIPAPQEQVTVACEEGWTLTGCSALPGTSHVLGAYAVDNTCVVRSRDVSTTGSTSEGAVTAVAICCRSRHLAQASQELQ
Sequence of PCSK9 secreted by HepG2 cells (Q8NBP7 31-152 partner): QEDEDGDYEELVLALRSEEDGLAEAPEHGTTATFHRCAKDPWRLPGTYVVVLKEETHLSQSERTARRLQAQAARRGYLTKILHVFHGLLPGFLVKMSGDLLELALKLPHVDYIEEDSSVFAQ

Structure (SMILES)	IC50 [1]	further results
O=c1ccccn1-c1ccc(N[C@H]2CC[C@H](Nc3ncc(C4CC4)nn3)C2)nc1 [Example 63, 6′-(((1S,3S)-3-((6-cyclopropyl-1,2,4-triazin-3-yl)amino)cyclopentyl)amino)-2H-[1,3′-bipyridinyl]-2-one]	10.5 µM	–
O=c1ccccn1-c1ccc(N[C@H]2CC[C@H](Nc3nsc(C4CC4)n3)C2)nc1 [Example 78, 6′-(((1S,3S)-3-((5-cyclopropyl-1,2,4-thiadiazol-3-yl)amino)cyclopentyl)amino)-2H-[1,3′-bipyridinyl]-2-one]	14.2 µM	–
Cc1ccn2nc(N[C@H]3CC[C@H](Nc4ccc(-n5ccccc5=O)cn4)C3)nc2c1 [Example 87, 6′-(((1S,3S)-3-((7-methyl-[1,2,4]triazolo[1,5-a]pyridin-2-yl)amino)cyclopentyl)amino)-2H-[1,3′-bipyridinyl]-2-one]	–	Time to peak tmax [2]: 15 min; AUC(0-inf) [2]: 10700 ng·h/mL; half-life [2]: 282 min; MRT [2]: 3.1 h; Cmax [2]: 5510 ng/mL
O=S1(=O)CCCN1c1ccc(N[C@H]2CC[C@H](Nc3ncc(OC(F)F)cn3)C2)nc1 [Example 91, 2-(6-(((1S,3S)-3-((5-(difluoromethoxy)pyrimidin-2-yl)amino)cyclopentyl)amino)pyridin-3-yl)-1,1-dioxoisothiazolane]	21.8 µM	–
O=c1n(-c2ccc(N[C@H]3CC[C@H](Nc4ncc(OC(F)F)cn4)C3)nc2)c2nccnc2n1C1CC1 [Example 97, 1-Cyclopropyl-3-(6-(((1S,3S)-3-((5-(difluoromethoxy)pyrimidin-2-yl)amino)cyclopentyl)amino)pyridin-3-yl)-1,3-dihydro-2H-imidazo[4,5-b]pyrazin-2-one]	11.6 µM	–
CC1(C)CCN(c2ccc(N[C@H]3CC[C@H](Nc4ncc(OC(F)F)cn4)C3)nc2)S1(=O)=O [Example 119]	17.4 µM	–
CC1(C)CCCN(c2ccc(N[C@H]3CC[C@H](Nc4ncc(OC(F)F)cn4)C3)nc2)S1(=O)=O [Example 120]	13.5 µM	–
O=S1(=O)c2ncccc2CN1c1ccc(N[C@H]2CC[C@H](Nc3ncc(OC(F)F)cn3)C2)nc1 [Example 121]	27.3 µM	–
FC(F)Oc1cnc(N[C@H]2CC[C@H](Nc3ccc(-c4cccc5ncnn45)cn3)C2)nc1 [Example 139, (1S,3S)—N1-(5-([1,2,4]triazolo[1,5-a]pyridin-5-yl)pyridin-2-yl)-N3-(5-(difluoromethoxy)pyrimidin-2-yl)cyclopentane-1,3-diamine]	10.4 µM	–
CC1(C)C(=O)N(c2ccc(N[C@H]3CC[C@H](Nc4ncc(OC(F)F)cn4)C3)nc2)c2cccnc21 [Example 150]	14.4 µM	–
O=S1(=O)c2ncccc2CN1c1ccc(N[C@H]2CC[C@H](Nc3ncc(C(F)(F)F)nn3)C2)nc1 [Example 154, 2-(6-(((1S,3S)-3-((6-(trifluoromethyl)-1,2,4-triazin-3-yl)amino)cyclopentyl)amino)pyridin-3-yl)-2,3-dihydroisothiazolo[5,4-b]pyridine 1,1-dioxide]	13.2 µM	–
O=C1c2ncc(F)cc2CN1c1ccc(N[C@H]2CC[C@H](Nc3nc4cc(C(F)(F)F)ccn4n3)C2)nc1 [Example 163, 3-Fluoro-6-(6-(((1S,3S)-3-((7-(trifluoromethyl)-[1,2,4]triazolo[1,5-a]pyridin-2-yl)amino)cyclopentyl)amino)pyridin-3-yl)-5,6-dihydro-7H-pyrrolo[3,4-b]pyridin-7-one]	12 µM	–

More lines, in order of falling IC50 [1], values ahead:

IC50 [1]	Structure (SMILES)	further results
10 µM	CC(C)(O)c1cccn(-c2ccc(N[C@H]3CC[C@H](Nc4ncc(OC(F)F)cn4)C3)nc2)c1=O [Example 64, 6′-(((1S,3S)-3-((5-(difluoromethoxy)pyrimidin-2-yl)amino)cyclopentyl)amino]-3-(2-hydroxyprop-2-yl)-2H-[1,3′-bipyridinyl]-2-one]	–
9.6 µM	O=C1c2ncc(F)cc2CN1c1ccc(N[C@H]2CC[C@H](Nc3ncc(OC(F)F)cn3)C2)nc1 [Example 136]	–
9 µM	O=C1c2cnccc2CN1c1ccc(N[C@H]2CC[C@H](Nc3ncc(OC(F)F)cn3)C2)nc1 [Example 75, 2-(6-(((1S,3S)-3-((5-(difluoromethoxy)pyrimidin-2-yl)amino)cyclopentyl)amino)pyridin-3-yl)-1,2-dihydro-3H-pyrrolo[3,4-c]pyridin-3-one]	–
7.4 µM	O=C1c2cc(F)cnc2CN1c1ccc(N[C@H]2CC[C@H](Nc3ncc(OC(F)F)cn3)C2)nc1 [Example 137]	–
6.2 µM	Cc1cc2c(cn1)CN(c1ccc(N[C@H]3CC[C@H](Nc4ncc(C5CC5)nn4)C3)nc1)C2=O [Example 160]	–
3.8 µM	O=c1c(-c2ccc(N[C@H]3CC[C@H](Nc4ncc(OC(F)F)cn4)C3)nc2)cnc2ccccn12 [Example 108, 3-(6-(((1S,3S)-3-((5-(difluoromethoxy)pyrimidin-2-yl)amino)cyclopentyl)amino)pyridin-3-yl)-4H-pyridino[1,2-a]pyrimidin-4-one]	–
3.6 µM	Cc1cnn2c(-c3ccc(N[C@H]4CC[C@H](Nc5ncc(OC(F)F)cn5)C4)nc3)cccc12 [Example 117, (1S,3S)—N1-(5-(difluoromethoxy)pyrimidin-2-yl)-N3-(5-(3-methylpyrazolo[1,5-a]pyridin-7-yl)pyridin-2-yl)cyclopentane-1,3-diamine]	–
3.3 µM	O=C1c2cccnc2CN1c1ccc(N[C@H]2CC[C@H](Nc3ncc(OC(F)(F)Br)cn3)C2)nc1 [Example 123, 6-(6-(((1S,3S)-3-((5-(bromodifluoromethoxy)pyrimidin-2-yl)amino)cyclopentyl)amino)pyridin-3-yl)-6,7-dihydro-5H-pyrrolo[3,4-b]pyridin-5-one]	–
2.6 µM	Cc1cc2c(cn1)CN(c1ccc(N[C@H]3CC[C@H](Nc4ncc(OC(F)F)cn4)C3)nc1)C2=O [Example 116, 2-(6-(((1S,3S)-3-((5-(difluoromethoxy)pyrimidin-2-yl)amino)cyclopentyl)amino)-3-yl)-6-methyl-2,3-dihydro-1H-pyrrolo[3,4-c]pyridin-1-one]	Time to peak tmax [2]: 60 min; AUC(0-inf) [2]: 42500 ng·h/mL; half-life [2]: 306 min; MRT [2]: 7.2 h; Cmax [2]: 4060 ng/mL
2 µM	Cc1nc(N[C@H]2CC[C@H](Nc3ccc(N4Cc5cccnc5C4=O)cn3)C2)nc2ccccc12 [Example 131, 6-(6-(((1S,3S)-3-((4-methylquinazolin-2-yl)amino)cyclopentyl)amino)pyridin-3-yl)-5,6-dihydro-7H-pyrrolo[3,4-b]pyridin-7-one]	–
1.8 µM	O=C1c2nc(C3CC3)ccc2CN1c1ccc(N[C@H]2CC[C@H](Nc3ncc(OC(F)F)cn3)C2)nc1 [Example 141]	–
0.5 µM	N#Cc1cnn2c(-c3ccc(N[C@H]4CC[C@H](Nc5ncc(OC(F)F)cn5)C4)nc3)ccnc12 [Example 118, 7-(6-(((1S,3S)-3-((5-(difluoromethoxy)pyrimidin-2-yl)amino)cyclopentyl)amino)pyridin-3-yl) pyrazolo[1,5-a]pyrimidine-3-carbonitrile]	–
0.5 µM	O=C1c2cc(C(F)(F)F)ncc2CN1c1ccc(N[C@H]2CC[C@H](Nc3ncc(OC(F)F)cn3)C2)nc1 [Example 138, 2-(6-(((1S,3S)-3-((5-(difluoromethoxy)pyrimidin-2-yl)amino)cyclopentyl)amino)pyridin-3-yl)-6-trifluoromethyl-2,3-dihydro-1H-pyrrolo[3,4-c]pyridin-1-one]	–
